Experimental data taken from ChEMBL document CHEMBL4118212, “Structure-activity relationship of uridine-based nucleoside phosphoramidate prodrugs for inhibition of dengue virus RNA-dependent RNA polymerase” (Bioorg Med Chem Lett, 2018).

Legend:
[1] = target: POLRMT (DNA-directed RNA polymerase, mitochondrial) (Homo sapiens, UniProt O00411); test: Inhibition of human POLRMT using 5'-FAM labelled RNA primer/DNA template duplex assessed as single nucleotide incorporation rate at 500 uM after 5 mins by SDS-PAGE analysis relative to control; design: scale not given: the % may be the effect or the level left; details: probe 5'-FAM labelled RNA primer/DNA template duplex, read-out: Activity
Nonstructural protein 5 = Nonstructural protein 5 (Dengue virus, UniProt V5TFZ2); test: Inhibition of Dengue virus RdRp activity using 5'-(TCAG)20(TCCAAG)14(TCAG)20-3' as template measured after 120 mins
[2] = Inhibition of recombinant human mitochondrial DNA polymerase gamma expressed in Escherichia coli BL21(DE3) cells assessed as single nucleotide incorporation rate at 100 uM relative to NTP; design: scale not given: the % may be the effect or the level left
dengue virus type 2 [3] = test: Antiviral activity against Dengue virus 2 infected in human HuH7 cells by replicon assay; format: functional, organism-based; details: Huh-7
[4] = Cytotoxicity against human HepG2 cells after 96 hrs by CCK-8 assay; format: cell-based
[5] = Cytotoxicity against human MT4 cells; format: cell-based
[6] = Cytotoxicity against human K562 cells; format: cell-based
dengue virus type 2 [7] = test: Antiviral activity against Dengue virus 2 infected in human PBMC after 2 days post infection by plaque assay; format: functional, organism-based; details: 48 h
[8] = Mitochondrial toxicity in human PC3 cells assessed as effect on mitochondrial protein synthesis measured after 5 days by ELISA; format: cell-based, PC-3
[9] = target: DNA-directed RNA polymerase, mitochondrial (Homo sapiens, UniProt O00411); test: Inhibition of human full length POLRMT using 32P-RNA primer/DNA template assessed as single nucleotide incorporation rate at 500 uM by SDS-PAGE analysis relative to CTP; design: scale not given: the % may be the effect or the level left
dengue virus type 2 [10] = test: Antiviral activity against Dengue virus 2 infected in human PBMC after 24 hrs post infection by plaque assay; format: functional, organism-based

Sequence of POLRMT (DNA-directed RNA polymerase, mitochondrial) (O00411 whole entry): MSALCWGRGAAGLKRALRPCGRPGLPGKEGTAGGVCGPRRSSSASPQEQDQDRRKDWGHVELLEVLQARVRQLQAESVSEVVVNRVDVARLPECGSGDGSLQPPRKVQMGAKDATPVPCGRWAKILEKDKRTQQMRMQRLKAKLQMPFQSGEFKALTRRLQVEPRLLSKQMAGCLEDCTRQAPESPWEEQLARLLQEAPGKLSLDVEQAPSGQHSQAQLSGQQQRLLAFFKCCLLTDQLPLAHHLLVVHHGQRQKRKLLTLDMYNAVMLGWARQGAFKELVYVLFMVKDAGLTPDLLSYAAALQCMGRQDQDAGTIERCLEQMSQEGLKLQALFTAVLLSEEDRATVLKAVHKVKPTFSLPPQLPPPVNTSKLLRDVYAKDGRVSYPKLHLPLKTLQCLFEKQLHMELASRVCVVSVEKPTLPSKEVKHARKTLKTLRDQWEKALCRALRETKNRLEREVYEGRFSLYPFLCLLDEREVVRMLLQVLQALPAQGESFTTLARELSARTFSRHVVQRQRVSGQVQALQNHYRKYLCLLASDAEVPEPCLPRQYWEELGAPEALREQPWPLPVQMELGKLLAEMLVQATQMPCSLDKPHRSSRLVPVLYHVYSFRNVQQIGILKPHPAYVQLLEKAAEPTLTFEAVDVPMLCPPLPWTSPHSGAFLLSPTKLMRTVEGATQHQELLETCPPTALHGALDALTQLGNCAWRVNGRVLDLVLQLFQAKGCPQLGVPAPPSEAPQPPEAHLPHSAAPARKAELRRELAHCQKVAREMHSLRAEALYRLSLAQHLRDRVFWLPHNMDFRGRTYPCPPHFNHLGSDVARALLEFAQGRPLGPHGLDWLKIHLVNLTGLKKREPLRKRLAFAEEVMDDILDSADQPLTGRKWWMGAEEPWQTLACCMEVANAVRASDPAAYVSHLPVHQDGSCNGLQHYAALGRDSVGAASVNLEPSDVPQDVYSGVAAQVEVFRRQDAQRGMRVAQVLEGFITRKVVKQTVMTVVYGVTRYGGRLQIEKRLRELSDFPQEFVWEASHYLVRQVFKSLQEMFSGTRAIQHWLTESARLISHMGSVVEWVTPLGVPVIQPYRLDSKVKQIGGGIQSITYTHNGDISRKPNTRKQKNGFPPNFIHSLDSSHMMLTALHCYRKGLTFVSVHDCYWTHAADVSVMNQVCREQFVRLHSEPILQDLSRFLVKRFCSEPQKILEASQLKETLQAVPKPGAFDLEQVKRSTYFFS
Sequence of Nonstructural protein 5 (V5TFZ2 whole entry): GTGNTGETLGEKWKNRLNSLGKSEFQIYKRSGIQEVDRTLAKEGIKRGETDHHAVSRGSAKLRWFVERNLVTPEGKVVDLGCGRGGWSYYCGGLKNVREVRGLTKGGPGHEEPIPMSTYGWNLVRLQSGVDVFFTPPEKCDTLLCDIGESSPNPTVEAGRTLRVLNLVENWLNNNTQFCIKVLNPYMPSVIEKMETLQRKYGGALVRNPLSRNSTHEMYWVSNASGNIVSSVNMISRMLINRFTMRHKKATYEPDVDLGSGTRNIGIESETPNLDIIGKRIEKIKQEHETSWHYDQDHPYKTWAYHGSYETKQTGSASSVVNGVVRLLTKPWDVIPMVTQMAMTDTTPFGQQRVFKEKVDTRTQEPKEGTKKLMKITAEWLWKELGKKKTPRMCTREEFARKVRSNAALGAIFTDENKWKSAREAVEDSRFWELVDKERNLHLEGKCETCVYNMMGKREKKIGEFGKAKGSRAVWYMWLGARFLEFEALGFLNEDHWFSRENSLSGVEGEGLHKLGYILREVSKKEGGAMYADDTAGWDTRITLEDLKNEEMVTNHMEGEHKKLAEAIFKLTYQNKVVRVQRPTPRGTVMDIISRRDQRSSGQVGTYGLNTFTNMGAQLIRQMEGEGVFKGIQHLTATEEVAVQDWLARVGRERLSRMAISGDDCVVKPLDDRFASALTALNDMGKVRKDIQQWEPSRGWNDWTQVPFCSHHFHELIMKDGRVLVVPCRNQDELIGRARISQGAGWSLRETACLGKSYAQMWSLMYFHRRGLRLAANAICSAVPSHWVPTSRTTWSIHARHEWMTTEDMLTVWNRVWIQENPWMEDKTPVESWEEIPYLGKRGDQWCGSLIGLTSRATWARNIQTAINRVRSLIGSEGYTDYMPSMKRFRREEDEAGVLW
Sequence of DNA-directed RNA polymerase, mitochondrial (O00411 whole entry): as the sequence (O00411 whole entry) above

## C#C[C@]1(O)[C@H](n2ccc(=O)[nH]c2=O)O[C@](F)(COP(=O)(O)OP(=O)(O)OP(=O)(O)O)[C@H]1O
[1]
  activity at 5 min, 500 µM: 3%
Nonstructural protein 5
  IC50: 0.65 µM
[2]
  Activity: 0%

## CC#C[C@@]1(F)[C@H](O)[C@@H](CO[P@@](=O)(N[C@@H](C)C(=O)OC(C)C)Oc2ccccc2)O[C@H]1n1ccc(=O)[nH]c1=O
Dengue virus type 2 [3]
  EC50: > 100 µM
[4]
  CC50 at 96 h: > 50 µM

## C#C[C@]1(O)[C@H](n2ccc(=O)[nH]c2=O)O[C@](F)(CO[P@@](=O)(N[C@@H](C)C(=O)OC(C)C)Oc2ccccc2)[C@H]1O
[5]
  CC50: > 50 µM
[6]
  CC50: > 50 µM
Dengue virus type 2 [7]
  EC50: 0.57 µM
[8]
  CC50 at 120 h: > 200 µM
[4]
  CC50 at 96 h: > 50 µM

## CC#C[C@@]1(O)[C@H](O)[C@@H](CO[P@@](=O)(N[C@@H](C)C(=O)OC(C)C)Oc2ccccc2)O[C@H]1n1ccc(=O)[nH]c1=O
Dengue virus type 2 [7]
  EC50: 1.9 µM
[4]
  CC50 at 96 h: > 50 µM

## C#C[C@@]1(O)[C@H](O)[C@@H](COP(=O)(O)OP(=O)(O)OP(=O)(O)O)O[C@H]1n1ccc(=O)[nH]c1=O
[1]
  activity at 5 min, 500 µM: 16.8%
Nonstructural protein 5
  IC50: 1.6 µM

## CC#C[C@]1(O)[C@H](n2ccc(=O)[nH]c2=O)O[C@](F)(COP(=O)(O)OP(=O)(O)OP(=O)(O)O)[C@H]1O
[1]
  activity at 5 min, 500 µM: 1.7%
Nonstructural protein 5
  IC50: 2.8 µM

## CC#C[C@@]1(O)[C@H](O)[C@@H](COP(=O)(O)OP(=O)(O)OP(=O)(O)O)O[C@H]1n1ccc(=O)[nH]c1=O
[1]
  activity at 5 min, 500 µM: 6.7%
Nonstructural protein 5
  IC50: 2 µM

## C#C[C@@]1(F)[C@H](O)[C@@H](COP(=O)(O)OP(=O)(O)OP(=O)(O)O)O[C@H]1n1ccc(=O)[nH]c1=O
[1]
  activity at 5 min, 500 µM: 2%
Nonstructural protein 5
  IC50: 15.9 µM

## C#C[C@@]1(F)[C@H](O)[C@@H](CO[P@@](=O)(N[C@@H](C)C(=O)OC(C)C)Oc2ccccc2)O[C@H]1n1ccc(=O)[nH]c1=O
Dengue virus type 2 [7]
  EC50: > 25 µM
[4]
  CC50 at 96 h: > 50 µM

## CC#C[C@]1(O)[C@H](n2ccc(=O)[nH]c2=O)O[C@](F)(CO[P@@](=O)(N[C@@H](C)C(=O)OC(C)C)Oc2ccccc2)[C@H]1O
Dengue virus type 2 [7]
  EC50: 9 µM
[4]
  CC50 at 96 h: > 50 µM

## C#C[C@@]1(O)[C@H](O)[C@@H](CO[P@@](=O)(N[C@@H](C)C(=O)OC(C)C)Oc2ccccc2)O[C@H]1n1ccc(=O)[nH]c1=O
Dengue virus type 2 [7]
  EC50: 0.45 µM
[4]
  CC50 at 96 h: > 50 µM

## CC#C[C@@]1(F)[C@H](O)[C@@H](COP(=O)(O)OP(=O)(O)OP(=O)(O)O)O[C@H]1n1ccc(=O)[nH]c1=O
[1]
  activity at 5 min, 500 µM: 2.2%
Nonstructural protein 5
  IC50: > 20 µM

## C[C@@]1(O)[C@H](O)[C@@H](COP(=O)(O)OP(=O)(O)OP(=O)(O)O)O[C@H]1n1ccc(=O)[nH]c1=O
[1]
  activity at 5 min, 500 µM: 29.4%
Nonstructural protein 5
  IC50: 5 µM

## CC(C)OC(=O)[C@H](C)NP(=O)(OC[C@H]1O[C@@H](n2ccc(=O)[nH]c2=O)[C@](C)(O)[C@@H]1O)Oc1ccccc1 (mixture of isomers)
Dengue virus type 2 [7]
  EC50: 0.19 µM
[4]
  CC50 at 96 h: > 50 µM

## [N-]=[N+]=N[C@]1(CO)O[C@@H](n2ccc(N)nc2=O)[C@H](O)[C@@H]1O [4'-AZIDOCYTIDINE]
[9]
  Activity: 91%
Dengue virus type 2 [10]
  EC50: 0.25 µM

## C[C@]1(O)[C@H](n2ccc(=O)[nH]c2=O)O[C@](F)(COP(=O)(O)OP(=O)(O)OP(=O)(O)O)[C@H]1O [ADAFOSBUVIR 5'-TRIPHOSPHATE]
[1]
  activity at 5 min, 500 µM: 5.7%
Nonstructural protein 5
  IC50: 6.6 µM

## CC(C)OC(=O)[C@H](C)N[P@](=O)(OC[C@@]1(F)O[C@@H](n2ccc(=O)[nH]c2=O)[C@](C)(O)[C@@H]1O)Oc1ccccc1 [ADAFOSBUVIR]
Dengue virus type 2 [7]
  EC50: 1.1 µM
[4]
  CC50 at 96 h: > 50 µM

## C[C@@]1(F)[C@H](O)[C@@H](COP(=O)(O)OP(=O)(O)OP(=O)(O)O)O[C@H]1n1ccc(=O)[nH]c1=O [GS-461203]
[1]
  activity at 5 min, 500 µM: 1.8%
Nonstructural protein 5
  IC50: 18 µM

## CC(C)OC(=O)[C@H](C)N[P@](=O)(OC[C@H]1O[C@@H](n2ccc(=O)[nH]c2=O)[C@](C)(F)[C@@H]1O)Oc1ccccc1 [SOFOSBUVIR]
Dengue virus type 2 [7]
  EC50: 1.2 µM
[4]
  CC50 at 96 h: > 50 µM
